# Reference: patent publication US9453014B2, “Cyclic amide derivatives as inhibitors of 11-β-hydroxysteroid dehydrogenase and uses thereof” (CONNEXIOS LIFE SCIENCES PVT. LTD., priority 2011, dated 2016)
# Target: T1, human full length HSD11 β 1 (Homo sapiens, UniProt P28845)
# T1 construct: transient expression of human full length HSD11 β 1 expression vector; host or cells: CHO cells (transient transfection)
# Test: In Vitro HSD11β1 Inhibition Assay
# Assay type: cell-based
# Conditions: CHO cells transiently expressing human HSD11β1; 200 nM cortisone+500 uM NADPH overnight; cortisone to cortisol by LC/MS-MS; read-out: 11βHSD1 (IC50)
# Summary of the method: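 CHO cells transiently transfected with human full-length HSD11β1 were re-seeded after 24 h and, 24 h later, incubated overnight with 200 nM cortisone plus 500 uM NADPH and inhibitor. Cortisone-to-cortisol conversion was measured by LC/MS-MS. IC50 from an 8-point log concentration–inhibition curve.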
# T1 sequence (P28845 whole entry): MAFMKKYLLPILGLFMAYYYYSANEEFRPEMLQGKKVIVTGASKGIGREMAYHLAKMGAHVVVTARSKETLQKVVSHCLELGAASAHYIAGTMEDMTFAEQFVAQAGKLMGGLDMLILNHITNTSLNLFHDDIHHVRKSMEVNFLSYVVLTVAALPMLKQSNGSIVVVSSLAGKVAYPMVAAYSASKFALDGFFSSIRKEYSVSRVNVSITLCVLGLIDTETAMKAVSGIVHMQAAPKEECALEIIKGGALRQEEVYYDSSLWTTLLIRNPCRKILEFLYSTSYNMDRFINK
row,SMILES,IC50 [nM]
1,"CC(CC(=O)N1CCCC2C1CCCC2(C)C(=O)O)c1c[nH]c2cccc(C3CC3)c12 (stereo not drawn) [Compound 237, 1-[3-(4-cyclopropyl-1H-indol-3-yl)butanoyl]-5-methyldecahydroquinoline-5-carboxylic acid]",150 to 200
2,"CC(CC(=O)N1CCCC2C(C(=O)O)CCCC21)c1c[nH]c2cccc(-c3ccccn3)c12 (stereo not drawn) [Compound 238, 1-{3-[4-(pyridin-2-yl)-1H-Indol-3-yl]butanoyl}decahydroquinoline-5-carboxylic acid]",> 250
3,"Cc1cc(-c2cccc3[nH]cc(C(C)CC(=O)N4CCCC5C(C(=O)O)CCCC54)c23)on1 (stereo not drawn) [Compound 239, 1-{3-[4-(3-methyl-1,2-oxazol-5-yl)-1H-indol-3-yl]butanoyl}decahydroquinoline-5-carboxylic acid]",> 250
4,"CC(CC(=O)N1CCCC2C(c3nnn[nH]3)CCCC21)c1c[nH]c2cccc(C3CC3)c12 (stereo not drawn) [Compound 240, 3-(4-cyclopropyl-1H-indol-3-yl)-1-[5-(1H-tetrazol-5-yl)octahydroquinolin-1(2H)-yl]butan-1-one]",> 250
5,"COn1cc(C(C)CC(=O)N2CCCC3C(C(=O)O)CCCC32)c2c(C3CC3)cccc21 (stereo not drawn) [Compound 241, 1-[3-(4-cyclopropyl-1-methoxy-1H-indol-3-yl)butanoyl]decahydroquinoline-5-carboxylic acid]",> 250
6,"COCn1cc(C(C)CC(=O)N2CCCC3C(C(=O)O)CCCC32)c2c(C3CC3)cccc21 (stereo not drawn) [Compound 242, 1-{3-[4-cyclopropyl-1-(methoxymethyl)-1H-indol-3-yl]butanoyl}decahydroquinoline-5-carboxylic acid]",> 250
7,"CC(CC(=O)N1CCCC2C(C(=O)O)CCCC21)c1c[nH]c2cccc(-c3ccc(F)cc3)c12 (stereo not drawn) [Compound 243, 1-{3-[4-(4-fluorophenyl)-1H-indol-3-yl]butanoyl}decahydroquinoline-5-carboxylic acid]",< 100
8,"CC(CC(=O)N1CCCC2C(C(=O)O)CCCC21)c1c[nH]c2cccc(-c3cccn3C)c12 (stereo not drawn) [Compound 244, 1-{3-[4-(1-methyl-1H-pyrrol-2-yl)-1H-indol-3-yl]butanoyl}decahydroquinoline-5-carboxylic acid]",> 250
9,"CC(CC(=O)N1CCCC2C(C(=O)O)CCCC21)c1c[nH]c2cccc(-c3ccc(F)o3)c12 (stereo not drawn) [Compound 245, 1-{3-[4-(5-fluorofuran-2-yl)-1H-indol-3-yl]butanoyl}decahydroquinoline-5-carboxylic acid]",< 100
10,"CC(CC(=O)N1CCCC2CCCCC21)c1c[nH]c2cccc(-c3ccc(C(=O)O)o3)c12 (stereo not drawn) [Compound 246, 5-{3-[4-(octahydroquinolin-1(2H)-yl)-4-oxobutan-2-yl]-1H-indol-4-yl}furan-2-carboxylic acid]",> 250
11,"CC(CC(=O)N1CCCC2C(C(=O)NCC(=O)O)CCCC21)c1c[nH]c2cccc(C3CC3)c12 (stereo not drawn) [Compound 247, N-({1-[3-(4-cyclopropyl-1H-indol-3-yl)butanoyl]decahydroquinolin-5-yl}carbonyl)glycine]",> 250
12,"CC(CC(=O)N1CCCC2C(C(=O)O)CCCC21)c1c(C#N)[nH]c2cccc(C3CC3)c12 (stereo not drawn) [Compound 252, 1-[3-(2-cyano-4-cyclopropyl-1H-indol-3-yl)butanoyl]decahydroquinoline-5-carboxylic acid]",> 250
13,"CC(CC(=O)N1CCCC2C(C(=O)O)CCCC21)c1c[nH]c2cccc(-c3ccc(F)cc3)c12 (stereo not drawn) [Compound 253, 1-{3-[4-(4-fluorophenyl)-1H-indol-3-yl]butanoyl}decahydroquinoline-5-carboxylic acid]",< 100
14,"CC(CC(=O)N1CCCC2C(C(=O)O)CCCC21)c1c[nH]c2cccc(-c3ccc(F)cc3)c12 (stereo not drawn) [Compound 254, 1-{3-[4-(4-fluorophenyl)-1H-indol-3-yl]butanoyl}decahydroquinoline-5-carboxylic acid]",> 250
15,"CC(CC(=O)N1CCCC2C(C(=O)O)CCCC21)c1c[nH]c2cccc(-c3ccccc3F)c12 (stereo not drawn) [Compound 257, 1-{3-[4-(2-fluorophenyl)-1H-indol-3-yl]butanoyl}decahydroquinoline-5-carboxylic acid]",100 to 150
16,"CC(CC(=O)N1CCCC2C(C(=O)O)CCCC21)c1c(C#N)n(C)c2cccc(C3CC3)c12 (stereo not drawn) [Compound 258, 1-[3-(2-cyano-4-cyclopropyl-1-methyl-1H-indol-3-yl)butanoyl]decahydroquinoline-5-carboxylic acid]",> 250
17,"CC(CC(=O)N1CCCC2C(C(=O)O)CCCC21)c1c[nH]c2cccc(-c3cccc(F)c3)c12 (stereo not drawn) [Compound 259, 1-{3-[4-(3-fluorophenyl)-1H-indol-3-yl]butanoyl}decahydroquinoline-5-carboxylic acid]",150 to 200
18,"O=C(O)C1CCCC2C1CCCN2C(=O)CSc1c[nH]c2cccc(C3CC3)c12 (stereo not drawn) [Compound 260, 1-{[(4-cyclopropyl-1H-indol-3-yl)sulfanyl]acetyl}decahydroquinoline-5-carboxylic acid]",> 250
19,"CC(CC(=O)N1CCCC2C(C(=O)O)CCCC21)c1cn(C2CC2)c2cccc(Cl)c12 (stereo not drawn) [Compound 261, 1-[3-(4-chloro-1-cyclopropyl-1H-indol-3-yl)butanoyl]decahydroquinoline-5-carboxylic acid]",200 to 250
20,"CC(CC(=O)N1CCCC2C(C(=O)O)CCCC21)c1c[nH]c2cccc(-c3ncccc3F)c12 (stereo not drawn) [Compound 262, 1-{3-[4-(3-fluoropyridin-2-yl)-1H-indol-3-yl]butanoyl}decahydroquinoline-5-carboxylic acid]",> 250
21,"CC(CC(=O)N1CCCC2C(C(=O)O)CCCC21)c1cn(C)c2cccc(-c3ccc(F)o3)c12 (stereo not drawn) [Compound 263, 1-{3-[4-(5-fluorofuran-2-yl)-1-methyl-1H-indol-3-yl]butanoyl}decahydroquinoline-5-carboxylic acid]",< 100
22,"COc1cccc2[nH]cc(C(C)CC(=O)N3CCCC4C(C(=O)O)CCCC43)c12 (stereo not drawn) [Compound 264, 1-[3-(4-methoxy-1H-indol-3-yl)butanoyl]decahydroquinoline-5-carboxylic acid]",> 250
23,"O=C(O)C1CCCC2C1CCCN2C(=O)CC(O)(c1c[nH]c2ccccc12)C(F)(F)F (stereo not drawn) [Compound 265, 1-[4,4,4-trifluoro-3-hydroxy-3-(1H-Indol-3-yl)butanoyl]-decahydroquinoline-5-carboxylic acid]",> 250
24,"CCn1cc(C(C)CC(=O)N2CCCC3C(C(=O)O)CCCC32)c2c(Cl)cccc21 (stereo not drawn) [Compound 266, 1-[3-(4-chloro-1-ethyl-1H-indol-3-yl)butanoyl]decahydroquinoline-5-carboxylic acid]",> 250
25,"CC(C(=O)N1CCCC2C(C(=O)O)CCCC21)c1c[nH]c2cccc(C3CC3)c12 (stereo not drawn) [Compound 267, 1-(2-(4-cyclopropyl-1H-indol-3-yl)propanoyl)decahydroquinoline-5-carboxylic acid]",> 250
26,"Cn1nc(CCC(=O)N2CCCC3C(C(=O)O)CCCC32)c2c(C3CC3)cccc21 (stereo not drawn) [Compound 268, 1-(3-(4-cyclopropyl-1-methyl-1H-indazol-3-yl)propanoyl) decahydroquinoline-5-carboxylic acid]",> 250
27,"CC(C)(Sc1nc2ccccc2s1)C(=O)N1CCCC2CCCCC21 (stereo not drawn) [Example 74, 2-(1,3-benzothiazol-2-ylsulfanyl)-2-methyl-1-(octahydroquinolin-1(2H)-yl)propan-1-one]",> 250

# Continued, values first:
row,IC50 [nM],SMILES
1,< 100,"O=C(CCc1nc2ccccc2s1)N1CCCC2CCCCC21 (stereo not drawn) [Example 75, 3-(1,3-benzothiazol-2-yl)-1-(octahydroquinolin-1(2H)-yl)propan-1-one]"
2,> 250,"CC1CCC2CCCCC2N1C(=O)CCc1nc2ccccc2s1 (stereo not drawn) [Example 76, 3-(1,3-benzothiazol-2-yl)-1-(2-methyloctahydroquinolin-1 (2H)-yl)propan-1-one]"
3,> 250,"COC(=O)C1CCN(C(=O)CCc2nc3ccccc3s2)C2CCCCC12 (stereo not drawn) [Example 77, methyl 1-[3-(1,3-benzothiazol-2-yl)propanoyl]decahydroquinoline-4-carboxylate]"
4,< 100,"CC12CCCCC1N(C(=O)CCc1nc3ccccc3s1)CCC2 (stereo not drawn) [Example 78, 3-(1,3-benzothiazol-2-yl)-1-(4a-methyloctahydroquinolin-1(2H)-yl)propan-1-one]"
5,> 250,"O=C(CCc1nc2ccccc2s1)N1CCOC2CCCCC21 (stereo not drawn) [Example 80, 3-(1,3-benzothiazol-2-yl)-1-(octahydro-4H-1,4-benzoxazin-4-yl)propan-1-one]"
6,< 100,"O=C(CCc1nc2ccccc2s1)N1CCC2CCCCC21 (stereo not drawn) [Example 81, 3-(1,3-benzothiazol-2-yl)-1-(octahydro-1H-indol-1-yl)propan-1-one]"
7,> 250,"O=C(CCc1nc2ccccc2s1)N1CC2CCCCC2C1 (stereo not drawn) [Example 82, 3-(1,3-benzothiazol-2-yl)-1-(octahydro-2H-isoindol-2-yl)propan-1-one]"
8,> 250,"CC1CC2CCCCC2N1C(=O)CCc1nc2ccccc2s1 (stereo not drawn) [Example 83, 3-(1,3-benzothiazol-2-yl)-1-(2-methyloctahydro-1H-indol-1-yl)propan-1-one]"
9,< 100,"O=C(CCc1c[nH]c2ncccc12)N1CCCC2CCCCC21 (stereo not drawn) [Example 84, 1-(octahydroquinolin-1(2H)-yl)-3-(1H-pyrrolo[2,3-b]pyridin-3-yl)propan-1-one]"
10,> 250,"O=C(CCc1cn(S(=O)(=O)c2ccccc2)c2ncccc12)N1CCCC2CCCCC21 (stereo not drawn) [Example 85, 1-(octahydroquinolin-1(2H)-yl)-3-[1-(phenylsulfonyl)-1H-pyrrolo[2,3-b]pyridin-3-yl]propan-1-one]"
11,< 100,"CC1CCC2CCCCC2N1C(=O)CCc1c[nH]c2ncccc12 (stereo not drawn) [Example 86, 1-(2-methyloctahydroquinolin-1(2H)-yl)-3-(1H-pyrrolo[2,3-b]pyridin-3-yl)propan-1-one]"
12,< 100,"Cn1cc(CCC(=O)N2CCCC3CCCCC32)c2cccnc21 (stereo not drawn) [Example 87, 3-(1-methyl-1H-pyrrolo[2,3-b]pyridin-3-yl)-1-(octahydroquinolin-1 (2H)-yl)propan-1-one]"
